Experimental data from patent publication US20240374692A1, “A NOVEL ACYLATED INSULIN ANALOG” (SUNSHINE LAKE PHARMA CO., LTD., priority 2021, published 2024).

Tested on: STZ-induced type I diabetes mellitus (T1DM) C57BL/6 mice
Test: Hypoglycemic effect, repeated administration (four times) to STZ-induced T1DM C57BL/6 mice (Example 5)
Format: in vivo
Set-up: key to random blood glucose: random blood glucose in mmol/L, Mean±SEM
Procedure: SPF grade C57BL/6 mice were reared in a suitable rearing box in a barrier environment, with a rearing temperature of 20-26° C., a humidity of 40-70%, a time between day and night of 12 h/12 h, and the mice had free access to standard food and autoclaved sterilization water. After a 3-day quarantine period and a 2-day acclimation period, the mice were fasted for 12 h, and the mice were injected intraperitoneally with streptozotocin solution (STZ, 13 mg/mL, in citrate buffer) or citrate buffer at 130 mg/kg (control group). 3 Days and 7 days after administration of streptozotocin, random blood glucose and fasting blood glucose were detected, and the random blood glucose value above 25 mmol/L and fasting blood glucose value above 11.1 mmol/L were selected as T1DM model mice for follow-up experiments. On the day before administration, random blood glucose was monitored and mice were weighed. Mice were divided into 4 groups according to random blood glucose and body weight.
Subcutaneous administration (S.C.) was used to administer the corresponding vehicle or drug, once every 4-5 days, for a total of 4 administrations. During the experiment, the animals were allowed to eat and drink water freely. The random blood glucose before the first administration, and 0.25, 0.5, 1, 2, 4, 6, 8, 10, 24, 48, 72, and 96 h after administration were assessed, as well as the random blood glucose before the second, third and fourth administration, and 1, 2, 4, 6, 8, 24, 48, 72, 96 and 120 h after administration.
All raw data were entered into Excel files and expressed as Mean±SEM. Statistical analysis of data was performed using Graphpad Prism 7.0 software, one-way or two-way ANOVA comparison method, and P<0.05 was used as the criterion for significant differences.

Substance: A14E, B16E, B25H, B29K(N(ε)-COOH(CH2)18CO-L-Lys-CO(CH2)2CO—(OEG)2), desB30 human insulin analog [Insulin-a3]
- glucose control effect and effective glucose control time compared with Insulin-a1 (1400 nmol/Kg S.C. four times): significantly better
- time after administration at which blood glucose reached the lowest level (1400 nmol/Kg S.C., Insulin-a1 each administration, Insulin-a3 first and second administrations): 24 h
- time after administration at which blood glucose reached the normal level (1400 nmol/Kg S.C., after the first and second administrations): 96 h
- time after administration at which blood glucose reached the normal level (1400 nmol/Kg S.C., after the third and fourth administrations): 120 h
- random blood glucose (Day 0 (1st administration), 1400 nmol/Kg S.C. four times): 31.3 ± 3.1
- random blood glucose (Day 1, 1400 nmol/Kg S.C. four times): 17.4 ± 6.7
- random blood glucose (Day 4 (2nd administration), 1400 nmol/Kg S.C. four times): 26.9 ± 8.0
- random blood glucose (Day 5, 1400 nmol/Kg S.C. four times): 7.1 ± 3.8
- random blood glucose (Day 9 (3rd administration), 1400 nmol/Kg S.C. four times): 26.2 ± 7.9
- random blood glucose (Day 10, 1400 nmol/Kg S.C. four times): 8.6 ± 5.7
- random blood glucose (Day 14 (4th administration), 1400 nmol/Kg S.C. four times): 24.4 ± 5.7
- random blood glucose (Day 18, 1400 nmol/Kg S.C. four times): 19.7 ± 6.4
- time the effective glucose control effect can be maintained (repeated administration, C57BL6 mice modeled by STZ): 4-5 days/time
